Values quoted from earlier work in patent US6649649B1, “Method of treating colonic adenomas” (Merck & Co., Inc., priority 1995, dated 2003).

How the values were obtained:
incident colon cancer = details: persons who regularly used aspirin compared to those who used no aspirin
sporadic colonic polyps = details: early sporadic polyps (67% of the polyps were <5 mm)
[1] = tested on: polyps in patients with familial polyposis

SMILES: CS(=O)(=O)Nc1ccc([N+](=O)[O-])cc1OC1CCCCC1 [NS-398]
- analgesic effect (rat): analgesic effects
- antiinflammatory effect (rat): antiinflammatory
- antipyretic effect (rat): antipyretic
- ulcerogenicity (rat): without being ulcerogenic
- selectivity for inhibition of either PGHS-1 or PGHS-2 (PGHS-1 or PGHS-2): selective PGHS-2 inhibitor

SMILES: CC(=O)Oc1ccccc1C(=O)O [aspirin]
- selectivity for inhibition of either PGHS-1 or PGHS-2 (PGHS-1 or PGHS-2): little selectivity
- lower risk of incident colon cancer (incident colon cancer): 40%

SMILES: COc1ccc2c(c1)c(CC(=O)O)c(C)n2C(=O)c1ccc(Cl)cc1 [indomethacin]
- selectivity for inhibition of either PGHS-1 or PGHS-2 (PGHS-1 or PGHS-2): little selectivity

SMILES: CC1=C(CC(=O)O)c2cc(F)ccc2/C1=C\c1ccc([S+](C)[O-])cc1 (centres unmarked) [sulindac]
- regression of sporadic colonic polyps (sporadic colonic polyps): did not result in a regression
- inhibition of PGHS-1 and PGHS-2 (PGHS-1 or PGHS-2): inhibiting both PGHS-1 and PGHS-2
- polyp regression [1]: results in polyp regression
